Consider 1 compound from EPA's ToxValDB 9.5 (doi:10.2903/j.efsa.2016.4432).

For one series, the system named is Typhlodromus pyri. In words: LR50; higher = less toxic. The note with it: not reported; mortality.
The next series relates to Daphnia magna. As to conditions: chronic/long-term; duration: 21 days; mortality.
The subject of the next series is Oryctolagus sp. The note with it: developmental; development.
The next series deals with Mus musculus. The note with it: acute; mortality.
The next series relates to Tagia sp. As to conditions: chronic/long-term; growth.
A further series concerns Rattus norvegicus. The note with it: acute; oral; mortality.
The test system of another series is Folsomia candida. As to conditions: chronic/long-term; mortality.
In another series the test system is Anas platyrhynchos. The note with it: short-term; oral; feed; mortality.
In the next series the test system is Apis mellifera. The note with it: acute, mortality.

Broadly, the NOAEL is the highest tested level that showed no adverse finding. A word on the LC50: it is the concentration lethal to half of the exposed cells or organisms. With `COCc1cnc(C2=NC(C)(C(C)C)C(=O)N2)c(C(=O)O)c1` (centres undefined) [Imazamox], in the series on Typhlodromus pyri, the LR50 came out at 1340 mL/ha. The NOEC came out at 137 mg/L in the series on Daphnia magna; 5.85 mg/kg in the series on Tagia sp.; 3.36 mg/kg with Folsomia candida; 1.22 mg/L in the series on Cyprinodon variegatus (chronic/long-term, duration: 35 days, other). Besides, the NOAEL in the series with Oryctolagus sp. stood at 300 mg/kg-day; with Colinus virginianus (reproduction developmental), 209 mg/kg-day. Moreover, the LD50 in the series on Mus musculus is greater than 5000 mg/kg-day; in the series on Colinus virginianus (acute, oral, mortality) it was 3490 mg/kg-day; in the series on Rattus norvegicus, greater than 5000 mg/kg-day; with Anas platyrhynchos, greater than 1930 mg/kg-day; in the series with Apis mellifera (dermal), greater than 58 µg/piece; with Apis mellifera (oral, unspecified), greater than 40 µg/piece. In the series with Cyprinodon variegatus (acute, duration: 96 hours, mortality), this compound yielded an LC50 greater than 97 µg/mL.
